Experimental data from patent US11839639B2, “Inhibition of androgen receptor by extracts of medicinal herbs and compositions thereof” (YALE UNIVERSITY, priority 2017, dated 2023).
“Also recorded” adds a separate entry of the source.

Columns and labels:
androgen receptor = androgen receptor (Homo sapiens, UniProt P10275); experiment: PSA promoter luciferase reporter assay, 22RV1 AR-luciferase reporter cells; format: cell-based; details: for anti-androgen receptor (AR) activity, luciferase reporter assay: 22RV1 AR-luciferase reporter cells, with DHT; for anti-androgen receptor activity, luciferase reporter assay: in present of DHT 10 nM
Chain of androgen receptor (P10275 whole entry): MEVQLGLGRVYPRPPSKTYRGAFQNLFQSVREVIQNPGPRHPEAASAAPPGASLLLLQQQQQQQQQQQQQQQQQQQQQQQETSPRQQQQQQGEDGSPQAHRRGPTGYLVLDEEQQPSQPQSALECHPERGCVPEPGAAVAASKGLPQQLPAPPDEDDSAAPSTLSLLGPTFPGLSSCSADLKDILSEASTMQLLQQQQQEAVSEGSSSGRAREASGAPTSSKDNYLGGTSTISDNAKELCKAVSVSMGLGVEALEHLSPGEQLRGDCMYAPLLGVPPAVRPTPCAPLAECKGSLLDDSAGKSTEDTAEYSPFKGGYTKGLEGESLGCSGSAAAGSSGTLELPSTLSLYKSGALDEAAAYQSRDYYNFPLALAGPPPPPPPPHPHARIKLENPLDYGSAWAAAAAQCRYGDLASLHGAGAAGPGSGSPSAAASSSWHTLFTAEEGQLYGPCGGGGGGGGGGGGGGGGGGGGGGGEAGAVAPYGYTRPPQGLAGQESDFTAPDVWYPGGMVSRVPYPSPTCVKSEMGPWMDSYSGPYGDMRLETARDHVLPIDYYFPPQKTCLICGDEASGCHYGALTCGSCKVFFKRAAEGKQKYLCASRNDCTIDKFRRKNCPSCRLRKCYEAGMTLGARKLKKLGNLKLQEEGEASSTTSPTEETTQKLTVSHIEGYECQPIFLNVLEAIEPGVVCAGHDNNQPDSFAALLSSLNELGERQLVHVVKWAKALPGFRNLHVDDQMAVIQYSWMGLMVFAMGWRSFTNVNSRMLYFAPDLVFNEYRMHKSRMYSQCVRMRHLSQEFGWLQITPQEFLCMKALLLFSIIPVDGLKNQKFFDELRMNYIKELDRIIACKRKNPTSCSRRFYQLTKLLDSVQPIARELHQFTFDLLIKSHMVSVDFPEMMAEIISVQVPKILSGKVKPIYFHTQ
Procedure: 22RV1 prostate cancer cells were used in the screening study. 22RV1 cell lines were stably transfected with PSA promoter-PGL4.2 luciferase reporter. 25 nM) H T was used to induce androgen receptor for 24 h.
22RV1 androgen reporter cells were treated with herbal extracts at 30, 100, 300, and 1000 μg/ml for 24 h in a 37° C.-CO2 incubator with or without 25 nM DHT which was used androgen receptor activity. Cells were lysed using luciferase lysis buffer after which luciferase buffer with luciferin was added to generate luminescence. Luminescence was recorded using a luminescence microplate reader.

DU145 xenograft = DU145 xenograft tumor growth; format: in vivo, mouse; details: nude mice
Procedure: (§1) In another animal experiment, we compared the anti-prostate tumor growth effect of S6, F5, and PE1 (each 300 mg/kg bid) to enzalutamide (10 mg/kg qd) (targeting on AR) on LNCaP (androgen dependent) xenograft tumor and Du145 xenograft tumor in nude mice for two weeks.

[1] = system: LNCaP (androgen dependent) xenograft tumor; experiment: LNCaP xenograft tumor growth; format: in vivo, nude mice; details: S6, F5, PE1 each 300 mg/kg bid; enzalutamide 10 mg/kg qd; two weeks
Procedure: as §1

22RV1 xenograft = 22RV1 xenograft tumor growth; format: in vivo, mouse; details: gallic acid 23 mg/kg BID orally, nude mice
Text: E5 may have higher selectively to inhibit prostate cancer with AR protein in vivo. I2 may have higher selectively to inhibit prostate cancer without AR protein expression in vivo.

Structure (SMILES) | anti-androgen receptor (AR) activity, luciferase reporter assay (androgen receptor) | anti-androgen receptor activity, luciferase reporter assay (androgen receptor) | further results
Oc1cc(O)c2c(c1)O[C@H](c1cc(O)c(O)c(O)c1)[C@H](O)C2 [Epigallocatechin] | showed inhibition; also recorded: different potency on inhibiting AR | highest potency against AR | 
CNC(=O)c1ccc(N2C(=S)N(c3ccc(C#N)c(C(F)(F)F)c3)C(=O)C2(C)C)cc1F [enzalutamide, reference compound] |  |  | growth of Du145 xenograft tumor (DU145 xenograft; S6, F5, PE1 each 300 mg/kg bid, enzalutamide 10 mg/kg qd, two weeks): not Du145 tumors; growth of LNCaP xenograft tumor [1]: effectively inhibited
O=C(O)c1cc(O)c(O)c(O)c1 [gallic acid] |  |  | in vivo anti-tumor activity, Du145 tumor (DU145 xenograft; gallic acid 23 mg/kg BID orally): exhibit in vivo anti-tumor activity; in vivo anti-tumor activity, 22RV1 tumor (22RV1 xenograft): exhibit in vivo anti-tumor activity
Oc1cc(O)c2c(c1)O[C@H](c1cc(O)c(O)c(O)c1)[C@@H](O)C2 [gallocatechin] | showed inhibition; also recorded: different potency on inhibiting AR | found to have anti-androgen receptor activity | 
O=C(O)c1cc(O)c2c(c1)[C@H]([C@H]1c3cc(CO)cc(O)c3C(=O)c3c(O[C@@H]4O[C@H](CO)[C@@H](O)[C@H](O)[C@H]4O)cccc31)c1cccc(O[C@@H]3O[C@H](CO)[C@@H](O)[C@H](O)[C@H]3O)c1C2=O [sennoside C] | no |  | 
O=C(O)c1cc(O)c2c(c1)[C@H]([C@@H]1c3cc(CO)cc(O)c3C(=O)c3c(O[C@@H]4O[C@H](CO)[C@@H](O)[C@H](O)[C@H]4O)cccc31)c1cccc(O[C@@H]3O[C@H](CO)[C@@H](O)[C@H](O)[C@H]3O)c1C2=O [sennoside D] | no |  | 
